Laboratory results taken from ChEMBL document CHEMBL3885881, “DrugMatrix”.

Species: Rattus norvegicus
Test: DrugMatrix - Regimen: Daily Repeat
Format: toxicity, organism-based, Sprague-Dawley
Parameters: regimen Daily Repeat, gender Male, age 6-8 weeks
Details: in vivo, po, route oral GAVAGE, vehicle .5 % CMC; for ABSOLUTE BASOPHIL / ABSOLUTE EOSINOPHIL / ABSOLUTE LYMPHOCYTE / ABSOLUTE MONOCYTE / ABSOLUTE SEGMENTED NEUTROPHIL / BASOPHIL / EOSINOPHIL / ERYTHROCYTE COUNT / HEMATOCRIT / HEMOGLOBIN / LEUKOCYTE COUNT / LYMPHOCYTE / MEAN CORPUSCULAR HEMOGLOBIN / MEAN CORPUSCULAR HEMOGLOBIN CONCENTRATION / MEAN CORPUSCULAR VOLUME / MONOCYTE / NEUTROPHIL / NUCLEATED RED BLOOD CELLS / PLATELET COUNT: tissue Blood; for ALANINE AMINOTRANSFERASE / ALBUMIN / ALKALINE PHOSPHATASE / ASPARTATE AMINOTRANSFERASE / BLOOD UREA NITROGEN / CARBON DIOXIDE / CHLORIDE / CHOLESTEROL / CREATINE PHOSPHOKINASE / CREATININE / GLUCOSE / LACTATE DEHYDROGENASE / LIPASE / PHOSPHORUS / POTASSIUM / SODIUM / TOTAL BILIRUBIN / TOTAL PROTEIN / URIC ACID: tissue Plasma
[1] = 50 mg/kg, 120 h, dose level Low, time 5 day
[2] = 1500 mg/kg, 72 h, dose level High, time 3 day
[3] = 1500 mg/kg, 120 h, dose level High, time 5 day

With `CNC(=C[N+](=O)[O-])NCCSCc1ccc(CN(C)C)o1` [RANITIDINE] the “ABSOLUTE BASOPHIL” value [1] was 0 CELLS/uL, the “ABSOLUTE EOSINOPHIL” value [1] was 64.67 CELLS/uL and the “ABSOLUTE LYMPHOCYTE” value [1] was 14230.33 CELLS/uL. For the same compound, the “ABSOLUTE MONOCYTE” value [1] was 0 CELLS/uL, the “ABSOLUTE SEGMENTED NEUTROPHIL” value [1] was 1138.33 CELLS/uL and the BASOPHIL [1] was 0%. The EOSINOPHIL [1] was 0.33%, the “ERYTHROCYTE COUNT” value [1] was 5.36 x10E6/uL and the HEMATOCRIT [1] was 34.53%. For the same compound, the HEMOGLOBIN [1] was 13.67 G/DL, the “LEUKOCYTE COUNT” value [1] was 15.43 x10E3/uL and the LYMPHOCYTE [1] was 92.67%. The “MEAN CORPUSCULAR HEMOGLOBIN” value [1] was 25.53 pg, the “MEAN CORPUSCULAR HEMOGLOBIN CONCENTRATION” value [1] was 39.6 G/DL and the “MEAN CORPUSCULAR VOLUME” value [1] was 64.47 fL. For the same compound, the MONOCYTE [1] was 0%, the NEUTROPHIL [1] was 7% and the “NUCLEATED RED BLOOD CELLS” value [1] was 0 /100WBC. For the same compound, the “PLATELET COUNT” value [1] was 1360.67 x10E3/uL, the “ALANINE AMINOTRANSFERASE” value [1] was 42 u/L and the ALBUMIN [1] was 4.17 G/DL. The “ALKALINE PHOSPHATASE” value [1] was 395 u/L, the “ASPARTATE AMINOTRANSFERASE” value [1] was 70.33 u/L and the “BLOOD UREA NITROGEN” value [1] was 17 mg/dL. For the same compound, the “CARBON DIOXIDE” value [1] was 28 mmol/L, the CHLORIDE [1] was 102 MEQ/L and the CHOLESTEROL [1] was 50.33 mg/dL. For the same compound, the “CREATINE PHOSPHOKINASE” value [1] was 245.67 u/L, the CREATININE [1] was 0.19 mg/dL and the GLUCOSE [1] was 148 mg/dL. For the same compound, the “LACTATE DEHYDROGENASE” value [1] was 98 u/L, the LIPASE [1] was 8.67 u/L and the PHOSPHORUS [1] was 12.1 mg/dL. The POTASSIUM [1] was 6.46 MEQ/L, the SODIUM [1] was 145.6 MEQ/L and the “TOTAL BILIRUBIN” value [1] was 0.2 mg/dL. The “TOTAL PROTEIN” value [1] was 6 G/DL, the “URIC ACID” value [1] was 1.33 mg/dL and the “ABSOLUTE BASOPHIL” value [2] was 0 CELLS/uL. For the same compound, the “ABSOLUTE EOSINOPHIL” value [2] was 49.67 CELLS/uL, the “ABSOLUTE LYMPHOCYTE” value [2] was 15225.67 CELLS/uL and the “ABSOLUTE MONOCYTE” value [2] was 162.67 CELLS/uL. The “ABSOLUTE SEGMENTED NEUTROPHIL” value [2] was 1162 CELLS/uL, the BASOPHIL [2] was 0% and the EOSINOPHIL [2] was 0.33%. For the same compound, the “ERYTHROCYTE COUNT” value [2] was 5.61 x10E6/uL, the HEMATOCRIT [2] was 35.4% and the HEMOGLOBIN [2] was 14 G/DL. For the same compound, the “LEUKOCYTE COUNT” value [2] was 16.6 x10E3/uL, the LYMPHOCYTE [2] was 91.67% and the “MEAN CORPUSCULAR HEMOGLOBIN” value [2] was 24.97 pg. The “MEAN CORPUSCULAR HEMOGLOBIN CONCENTRATION” value [2] was 39.57 G/DL, the “MEAN CORPUSCULAR VOLUME” value [2] was 63.03 fL and the MONOCYTE [2] was 1%. For the same compound, the NEUTROPHIL [2] was 7%, the “NUCLEATED RED BLOOD CELLS” value [2] was 0.33 /100WBC and the “PLATELET COUNT” value [2] was 1234.33 x10E3/uL. The “ALANINE AMINOTRANSFERASE” value [2] was 53 u/L, the ALBUMIN [2] was 4.17 G/DL and the “ALKALINE PHOSPHATASE” value [2] was 349.67 u/L. The “ASPARTATE AMINOTRANSFERASE” value [2] was 86.67 u/L, the “BLOOD UREA NITROGEN” value [2] was 14.67 mg/dL and the “CARBON DIOXIDE” value [2] was 31 mmol/L. The CHLORIDE [2] was 101.33 MEQ/L, the CHOLESTEROL [2] was 68 mg/dL and the “CREATINE PHOSPHOKINASE” value [2] was 268.67 u/L. For the same compound, the CREATININE [2] was 0.18 mg/dL, the GLUCOSE [2] was 146 mg/dL and the “LACTATE DEHYDROGENASE” value [2] was 319.67 u/L. The LIPASE [2] was 9.33 u/L, the PHOSPHORUS [2] was 12.6 mg/dL and the POTASSIUM [2] was 7.13 MEQ/L. The SODIUM [2] was 145.5 MEQ/L, the “TOTAL BILIRUBIN” value [2] was 0.17 mg/dL and the “TOTAL PROTEIN” value [2] was 5.6 G/DL. The “URIC ACID” value [2] was 1.37 mg/dL, the “ABSOLUTE BASOPHIL” value [3] was 0 CELLS/uL and the “ABSOLUTE EOSINOPHIL” value [3] was 61.33 CELLS/uL. For the same compound, the “ABSOLUTE LYMPHOCYTE” value [3] was 16689.33 CELLS/uL, the “ABSOLUTE MONOCYTE” value [3] was 42 CELLS/uL and the “ABSOLUTE SEGMENTED NEUTROPHIL” value [3] was 1274 CELLS/uL. The BASOPHIL [3] was 0%, the EOSINOPHIL [3] was 0.33% and the “ERYTHROCYTE COUNT” value [3] was 6.18 x10E6/uL. For the same compound, the HEMATOCRIT [3] was 38.9%, the HEMOGLOBIN [3] was 15.3 G/DL and the “LEUKOCYTE COUNT” value [3] was 18.07 x10E3/uL. The LYMPHOCYTE [3] was 92.67%, the “MEAN CORPUSCULAR HEMOGLOBIN” value [3] was 24.8 pg and the “MEAN CORPUSCULAR HEMOGLOBIN CONCENTRATION” value [3] was 39.33 G/DL. For the same compound, the “MEAN CORPUSCULAR VOLUME” value [3] was 63.03 fL, the MONOCYTE [3] was 0.33% and the NEUTROPHIL [3] was 6.67%. For the same compound, the “NUCLEATED RED BLOOD CELLS” value [3] was 0 /100WBC, the “PLATELET COUNT” value [3] was 1282 x10E3/uL and the “ALANINE AMINOTRANSFERASE” value [3] was 57.33 u/L. For the same compound, the ALBUMIN [3] was 4.27 G/DL, the “ALKALINE PHOSPHATASE” value [3] was 392.67 u/L and the “ASPARTATE AMINOTRANSFERASE” value [3] was 93.67 u/L. For the same compound, the “BLOOD UREA NITROGEN” value [3] was 15.67 mg/dL, the “CARBON DIOXIDE” value [3] was 21.33 mmol/L and the CHLORIDE [3] was 100.33 MEQ/L. The CHOLESTEROL [3] was 69.67 mg/dL, the “CREATINE PHOSPHOKINASE” value [3] was 330.33 u/L and the CREATININE [3] was 0.23 mg/dL. The GLUCOSE [3] was 154 mg/dL, the “LACTATE DEHYDROGENASE” value [3] was 426.67 u/L and the LIPASE [3] was 10 u/L. It also gave a PHOSPHORUS [3] of 12.5 mg/dL, a POTASSIUM [3] of 6.43 MEQ/L and an SODIUM [3] of 144.53 MEQ/L. For the same compound, the “TOTAL BILIRUBIN” value [3] was 0.23 mg/dL, the “TOTAL PROTEIN” value [3] was 6.27 G/DL and the “URIC ACID” value [3] was 2.73 mg/dL.
